From BindingDB's records for patent US9718819 (Merck Sharp & Dohme, 2017)

Molecular target: Gag-Pol polyprotein (Human immunodeficiency virus type 1 group M subtype B (isolate HXB2), UniProt P04585)
Test: HIV-1 Reverse Transcriptase Inhibitory Assay
Conditions: pH 7.8; 25 °C
Source text: The heterodimeric nucleic acid substrate used in the HIV-1 RT polymerase reactions was generated by annealing the DNA primer, biotinylated pD500 (Sigma Aldrich, USA, 5′-biotin-ttg aaa tga ctg cgg tac ggc-3′), SEQ ID NO. 1 to the nucleotide RNA template t500 (derived from hepatitis C virus [HCV] sequence, IBA, Germany, 5′-GAGGUUCAGGUGGUUUCCACCGCAACACAAUCCUUCCUGGCGACCUGCGUCAACGGCGUGUGUUGGACCGUUUACCAUGGUGCUGGCUCAAAGACCUUAGCCGGCCCAAAGGGGCCAAUCACCCAGAUGUACACUAAUGUGGACCAGGACCUCGUCGGCUGGCAGGCGCCCCCCGGGGCGCGUUCCUUGACACCAUGCACCUGUGGCAGCUCAGACCUUUACUUGGUCACGAGACAUGCUGACGUCAUUCCGGUGCGCCGGCGGGGCGACAGUAGGGGGAGCCUGCUCUCCCCCAGGCCUGUCUCCUACUUGAAGGGCUCUUCGGGUGGUCCACUGCUCUGCCCUUCGGGGCACGCUGUGGGCAUCUUCCGGGCUGCCGUAUGCACCCGGGGGGUUGCGAAGGCGGUGGACUUUGUGCCCGUAGAGUCCAUGGAAACUACUAUGCGGUCUCCGGUCUUCACGGACAACUCAUCCCCCCCGGCCGUACCGCAGUCAUUUCAA-3′), SEQ ID NO 2). […] The mixture was then preincubated on an orbital shaker for 30 min at room temperature in microtiter plates (Costar 3365, Corning, USA). A polymerization reaction was initiated by the addition of RNA template/pD500 DNA primer hybrid (16.6 nM final of RNA/DNA hybrid) and dNTPs (2 μM dATP, dGTP, dCTP and 66.6 nM Ru-dUTP (Meso Scale Discovery, USA)). Plate was sealed and incubated for 5-10 min at room temperature on an orbital shaker. Plate was then incubated for 90 min at 37° C. and reactions quenched with 60 μl quenching buffer (50 mM EDTA, 0.7% BSA, 0.7% Tween-20, 0.017% sodium azide in PBS). The resulting solution was incubated at room temperature for an additional 5 min and then 50 μL was transferred to pre-blocked Avidin plates (L15AA, Meso Scale Discovery). Each well of Avidin plate was blocked for 1 h at room temperature with 100 μL 5% BSA in PBS. Blocking solution was removed by tapping vigorously on filter paper to remove all excess liquid. Reaction on pre-blocked avidin plate proceeded for 60 min at room temperature and then contents removed by tapping vigorously on filter paper to remove all excess liquid. After washing plate 3 times with 150 μL 1×PBS and blotting dry between cycles, 150 μL 1× Read Buffer T (4× Read Buffer T, Meso Scale Discovery) was added and incubated for 5 min at room temperature before counting on a Sector Imager […] (Meso Scale Discovery). Titration curves and IC50 values were calculated using a four parameter logisitc fit according to standard procedures. Briefly, % Inhibition=100×((sample raw value)−(mean value of the low control or 0% inhibition))/((mean value of wells representing 100% inhbition)−(mean value of 0% inhbition)). […]

Going from COc1cc(-c2cc(Cn3cnc(C(F)(F)F)c(Oc4cc(Cl)cc(C#N)c4)c3=O)n[nH]c2=O)ccn1 [US9718819, 79] to Cc1cncc(-c2cc(Cn3cnc(C(F)(F)F)c(Oc4cc(Cl)cc(C#N)c4)c3=O)n[nH]c2=O)c1 [US9718819, 80], the IC50 rises from 6 nM to 14 nM (2.3-fold).

Compared with N#Cc1cc(Cl)cc(Oc2c(C(F)(F)F)ncn(Cc3cc(-c4cn[nH]c4)n[nH]c3=O)c2=O)c1 [US9718819, 118], Cn1[nH]c(=O)c(Cn2cnc(C(F)(F)F)c(Oc3cc(Cl)cc(C#N)c3)c2=O)cc1=O [US9718819, 127] is 62-fold higher in IC50: 7 nM for the first, 434 nM for the second.
